According to patent publication US7291710B2, “Detection of spectrin and spectrin proteolytic cleavage products in assessing nerve cell damage” (priority 2002, dated 2007):
Where a SMILES comes first, the peptide text is derived from it.

Columns and labels:
[1] = system: calpain and caspase-3 activation in septo-hippocampal cultures; test: Treatment of septo-hippocampal cultures with calpain, caspase and protein synthesis inhibitors; assay type: cell-based, rat; conditions: for antagonism of calpain and caspase-3 activation accompanying staurosporine-induced apoptosis: 37.5 μM CalpInh-II, 30 μM Z-D-DCB, pretreatment 1 hour
Protocol: (§1) Septo-hippocampal cultures. Eighteen day old rat fetuses were removed from deeply anesthetized dams. Septi and hippocampi were dissected in a dissection buffer (HBSS, with 4.2 mM bicarbonate, 1 mM pyruvate, 20 mM HEPES, 3 mg/ml BSA, pH 7.25). After rinsing in DMEM-DM, tissue was dissociated by trituration through the narrow pore of a flame-constricted Pasteur pipette. Dissociated cells were resuspended in DMEM with 10% fetal calf serum (DMEM-10S) and plated on 24-well poly-L-lysine coated plastic culture plates or 12 mm of German glass (Erie Scientific Co.) at a density of 4.36×10^5 cells/mL. Cultures were maintained in a humidified incubator in an atmosphere of 5% CO2 at 37° C. After 5 days of culture, the media was changed to DMEM-DM. […] Subsequent media changes were carried out three times a week. By day 10 in vitro, astrocytes formed a confluent monolayer beneath morphologically mature neurons.
Treatment of septo-hippocampal cultures with calpain, caspase, and protein synthesis inhibitors. Sister cultures were pretreated with either 37.5 μM calpain inhibitor-II (CalpInh-II) (Boehringer Mannheim), 30 μM of the pan-caspase inhibitor Z-D-DCB (obtained from Biochem), or 1 μg/mL of the protein synthesis inhibitor, cycloheximide (Sigma), […] The inhibitor concentrations provide optimal inhibition of calpains, caspase-3 (CPP32) proteases, and protein synthesis. […] This investigation also employed degradation of αII-spectrin to provide independent confirmation that the concentrations of CalpInh-II and Z-D-DCB used in this study to inhibit calpains and caspase-3 proteases. […] Following each experiment, cells were fixed for staining, or protein or DNA extraction was performed.
SDS-Polyacrylamide Gel electrophoresis and immunoblotting. At the end of an experiment, cells were harvested from 5 identical culture wells and collected in 15 ml centrifuge tubes and centrifuged at 3000 g for 5 min. The medium was removed and the pellet cells were rinsed with 1× DPBS. […]

[2] = system: septo-hippocampal cultures; test: αII-spectrin immunoblot of septo-hippocampal cultures after maitotoxin or staurosporine insult; assay type: cell-based, rat; conditions: maitotoxin 30 min, 1 hr; staurosporine 3 hr; anti-α-spectrin antibody FG 6090
Protocol: as §1, with “By day 10 in vitro, astrocytes formed a confluent monolayer beneath morphologically mature neurons.” left out
Pharmacological treatment of septo-hippocampal cells with maitotoxin. Ten day old septo-hippocampal cultures were challenged with 0.01-2.0 nM of maitotoxin (Wako Products, Richmond, Va., Cat.# 131-10731) in DMEM-DM and cell viability was monitored at various post-injury time points. […]
Treatment of cultures with staurosporine. Ten day old septo-hippocampal cultures were challenged with 0.05-2.0 μM of staurosporine (Calbiochem, La Jolla, Calif., Cat. # 569397) in DMEM-DM and cell viability was monitored at various post-injury time points. […]

| Structure (SMILES) | antagonism of calpain and caspase-3 activation accompanying staurosporine-induced apoptosis [1] | type of cell death and protease-specific SBDP detected [2] | also measured |
| --- | --- | --- | --- |
| CSCC[C@@H](C=O)NC(=O)[C@H](CC(C)C)NC(=O)[C@H](CC(C)C)NC(C)=O [CalpInh-II, N-acetyl-Leu-Leu-methioninal] (Ac-Leu-Leu-Met-aldehyde) | could antagonize calpain and caspase-3 activation |  |  |
| O=C(O)CC(NC(=O)OCc1ccccc1)C(=O)COC(=O)c1c(Cl)cccc1Cl [Z-D-DCB, carbobenzoxy-Asp-CH2—OC (O)-2-6-dichlorobenzene] | could antagonize calpain and caspase-3 activation |  |  |
| C[C@@H]1C[C@@H]([C@H](O)CC2CC(=O)NC(=O)C2)C(=O)[C@@H](C)C1 [cycloheximide] |  |  | effect on calpain and caspase activation and apoptotic cell death ([1]; 1 μg/mL cycloheximide): blocked calpain and caspase activation as well as apoptotic cell death |
| C=CC[C@H](C)[C@H](C)C[C@@H](O)[C@H](O)[C@@H]1CC[C@@]2(C)O[C@@]3(C)C[C@@]4(C)O[C@H]5/C=C\C[C@H]6O[C@H]7C[C@H]8O[C@H]9C[C@@]%10(C)O[C@@](C)([C@@H]%11CC[C@H]%12O[C@@]%13(C)C[C@H]%14O[C@@]%15(C)C[C@H]%16O[C@@]%17(C)C[C@@H](O)[C@H]([C@@H]%18O[C@H]%19[C@H](O)[C@@H](O)[C@H](C[C@H](O)C[C@@H](O)[C@@H]%20O[C@H]%21[C@H](O)[C@@H](O)[C@H]([C@@H]%22O[C@@H]%23[C@H](O)[C@H]%24O[C@H]%25C[C@H]%26O[C@@H](C[C@H](O)[C@@H](O)[C@H]%27O[C@H]%28[C@H](O)[C@H]%29O[C@H]%30C[C@H]%31O[C@H]%32[C@@H](O)[C@@H](O)[C@H]([C@H](C)[C@H](O)[C@H](C)CC[C@H](OS(=O)(=O)O)[C@H](O)[C@H](C)C[C@@H](O)C(=C)/C(C)=C/CO)O[C@@H]%32[C@H](O)C[C@]%31(C)O[C@@H]%30C[C@]%29(C)O[C@@H]%28C[C@H]%27O)[C@H](OS(=O)(=O)O)[C@H](O)[C@@H]%26O[C@@H]%25C[C@@H]%24O[C@H]%23[C@H](O)[C@H]%22O)O[C@H]%21C[C@H]%20O)O[C@H]%19C[C@H]%18O)O[C@@H]%17[C@H](O)[C@]%16(C)O[C@@H]%15CC[C@]%14(C)O[C@@H]%13C[C@@H]%12O%11)[C@H](O)C[C@@H]%10O[C@]9(C)CC[C@]8(C)O[C@]7(C)C[C@@H]6O[C@@H]5C[C@@H]4O[C@@H]3C[C@@H]2O1 [maitotoxin] |  | necrotic cell death mediated by calpain (145 kDa SBDP) but not caspase-3 (120 kDa SBDP) |  |
| CN[C@@H]1C[C@H]2O[C@@](C)([C@@H]1OC)n1c3ccccc3c3c4c(c5c6ccccc6n2c5c31)C(=O)NC4 [staurosporine] |  | apoptotic cell death mediated by caspase-3 (120 kDa SBDP) but not by calpain (145 kDa SBDP) |  |
